From PubChem BioAssay AID1259407 (Chemical Carcinogenesis Research Information System (CCRIS), 2018)
Activity calls are given as the source filed them. No rule for the calls is given here.

Tested on: CCRIS mutagenicity, Ames/micronucleus/aberration tests
Assay: CCRIS mutagenicity studies
[1] = Test System: AMES SALMONELLA TYPHIMURIUM, Strain/Indicator: TA100, Metabolic Activation: RAT, LIVER, S-9, PCB, Method: PREINCUBATION
[2] = Test System: AMES SALMONELLA TYPHIMURIUM, Strain/Indicator: TA98, Metabolic Activation: NONE, Method: STANDARD PLATE
[3] = Test System: AMES SALMONELLA TYPHIMURIUM, Strain/Indicator: TA98, Metabolic Activation: RAT, LIVER, S-9, AROCLOR 1254, Method: STANDARD PLATE
[4] = Test System: AMES SALMONELLA TYPHIMURIUM, Strain/Indicator: TA100, Metabolic Activation: NONE, Method: PREINCUBATION
[5] = Test System: AMES SALMONELLA TYPHIMURIUM, Strain/Indicator: TA100, Metabolic Activation: NONE, Method: STANDARD PLATE
[6] = Test System: AMES SALMONELLA TYPHIMURIUM, Strain/Indicator: TA100, Metabolic Activation: RAT, LIVER, S-9, AROCLOR 1254, Method: STANDARD PLATE

For `CC(=O)CN(CC(C)O)N=O` (stereo not given), the mutagenic call (Test System: AMES SALMONELLA TYPHIMURIUM, Strain/Indicator: TA100, Metabolic Activation: HAMSTER, LIVER, S-9, 3-METHYLCHOLANTHRENE, Method: PREINCUBATION) was “active; positive”, the mutagenic call (Test System: AMES SALMONELLA TYPHIMURIUM, Strain/Indicator: TA100, Metabolic Activation: HAMSTER, LIVER, S-9, PHENOBARBITAL, Method: PREINCUBATION) was “active; positive” and the mutagenic call (Test System: AMES SALMONELLA TYPHIMURIUM, Strain/Indicator: TA100, Metabolic Activation: HAMSTER, LIVER, S-9, Method: PREINCUBATION) was “active; positive”. For the same compound, the mutagenic call (Test System: AMES SALMONELLA TYPHIMURIUM, Strain/Indicator: TA100, Metabolic Activation: HUMAN, LIVER, S-9, Method: PREINCUBATION) was “active; positive”, the mutagenic call (Test System: AMES SALMONELLA TYPHIMURIUM, Strain/Indicator: TA100, Metabolic Activation: MONKEY, LIVER, S-9, Method: PREINCUBATION) was “active; positive” and the mutagenic call (Test System: AMES SALMONELLA TYPHIMURIUM, Strain/Indicator: TA100, Metabolic Activation: MOUSE, LIVER, S-9, 3-METHYLCHOLANTHRENE, Method: PREINCUBATION) was “active; positive”. For the same compound, the mutagenic call (Test System: AMES SALMONELLA TYPHIMURIUM, Strain/Indicator: TA100, Metabolic Activation: MOUSE, LIVER, S-9, PHENOBARBITAL, Method: PREINCUBATION) was “active; positive”, the mutagenic call (Test System: AMES SALMONELLA TYPHIMURIUM, Strain/Indicator: TA100, Metabolic Activation: MOUSE, LIVER, S-9, Method: PREINCUBATION) was “active; positive” and the mutagenic call (Test System: AMES SALMONELLA TYPHIMURIUM, Strain/Indicator: TA100, Metabolic Activation: RABBIT, LIVER, S-9, Method: PREINCUBATION) was “active; positive”. For the same compound, the mutagenic call (Test System: AMES SALMONELLA TYPHIMURIUM, Strain/Indicator: TA100, Metabolic Activation: RAT, LIVER, CYTOSOL, PCB, Method: PREINCUBATION) was “active; positive”, the mutagenic call (Test System: AMES SALMONELLA TYPHIMURIUM, Strain/Indicator: TA100, Metabolic Activation: RAT, LIVER, MICROSOMES AND CYTOSOL, PCB, Method: PREINCUBATION) was “active; positive” and the mutagenic call (Test System: AMES SALMONELLA TYPHIMURIUM, Strain/Indicator: TA100, Metabolic Activation: RAT, LIVER, MICROSOMES AND G6PDH, PCB, Method: PREINCUBATION) was “active; positive”. The mutagenic call (Test System: AMES SALMONELLA TYPHIMURIUM, Strain/Indicator: TA100, Metabolic Activation: RAT, LIVER, MICROSOMES, PCB, Method: PREINCUBATION) was “active; positive”, the mutagenic call (Test System: AMES SALMONELLA TYPHIMURIUM, Strain/Indicator: TA100, Metabolic Activation: RAT, LIVER, S-9 (HEATED), PCB, Method: PREINCUBATION) was “active; positive” and the mutagenic call (Test System: AMES SALMONELLA TYPHIMURIUM, Strain/Indicator: TA100, Metabolic Activation: RAT, LIVER, S-9, 3-METHYLCHOLANTHRENE, Method: PREINCUBATION) was “active; positive”. For the same compound, the mutagenic call [1] was “active; positive”, the mutagenic call (Test System: AMES SALMONELLA TYPHIMURIUM, Strain/Indicator: TA100, Metabolic Activation: RAT, LIVER, S-9, PHENOBARBITAL, Method: PREINCUBATION) was “active; positive” and the mutagenic call (Test System: AMES SALMONELLA TYPHIMURIUM, Strain/Indicator: TA100, Metabolic Activation: RAT, LIVER, S-9, Method: PREINCUBATION) was “active; positive”. The mutagenic call (Test System: AMES SALMONELLA TYPHIMURIUM, Strain/Indicator: TA100, Metabolic Activation: RAT, LIVER, S-9 WITHOUT NADP+, PCB, Method: PREINCUBATION) was “active; positive”, the mutagenic call (Test System: AMES SALMONELLA TYPHIMURIUM, Strain/Indicator: TA100, Method: PREINCUBATION) was “active; positive” and the mutagenic call (Test System: CHINESE HAMSTER V-79, Strain/Indicator: V-79/OUABAIN, Metabolic Activation: HAMSTER, HEPATOCYTES, Method: CELL-MEDIATED) was “active; positive”.
With `Nc1ccc(/C=C/C(=O)O)cc1` the mutagenic call [2] was “inactive; negative”, the mutagenic call [3] was “inactive; negative” and the mutagenic call [4] was “inactive; negative”. For the same compound, the mutagenic call [5] was “inactive; negative”, the mutagenic call (Test System: AMES SALMONELLA TYPHIMURIUM, Strain/Indicator: TA100, Metabolic Activation: RAT, LIVER, S-9, AROCLOR 1254, Method: PREINCUBATION) was “inactive; negative” and the mutagenic call [6] was “inactive; negative”.
With `CC(=O)Nc1ccc(C(=O)/C=C/c2ccccc2)cc1` the mutagenic call [2] was “inactive; negative”, the mutagenic call [3] was “inactive; negative” and the mutagenic call [5] was “inactive; negative”. The mutagenic call [6] was “inactive; negative”.
In the case of `Nc1nc(-c2cccc([N+](=O)[O-])c2)nc2c1ncn2[C@@H]1O[C@H](CO)[C@@H](O)[C@H]1O`, the mutagenic call (Test System: AMES SALMONELLA TYPHIMURIUM, Strain/Indicator: TA98, Metabolic Activation: NONE, Method: PREINCUBATION) is reported as “inactive; negative”, the mutagenic call (Test System: AMES SALMONELLA TYPHIMURIUM, Strain/Indicator: TA98, Metabolic Activation: RAT, LIVER, S-9, PCB, Method: PREINCUBATION) is reported as “inactive; negative” and the mutagenic call [4] is reported as “active; positive”. For the same compound, the mutagenic call [1] was “active; positive”.
